Reference: patent US20260216138A1, “IDENTIFICATION OF OTUD7B INHIBITOR 7BI AND ITS APPLICATION IN REDUCING GROWTH OF NSCLC AND LEUKEMIA CELLS” (The University of North Carolina at Chapel Hill, priority 2023, published 2026)

What was measured:
OTUD7B = molecular target: T1, OTUD7B (Homo sapiens, UniProt Q6GQQ9); experiment: In vitro OTUD7B deubiquitination assay, K11-linked di-ub cleavage; type: biochemical
T1 construct: OTUD7B (residues 56-446); GST (N, cleaved yes); made in house; host or cells: E. coli BL21-Codon Plus (DE3)-RIL
T1 sequence (Q6GQQ9 56-446): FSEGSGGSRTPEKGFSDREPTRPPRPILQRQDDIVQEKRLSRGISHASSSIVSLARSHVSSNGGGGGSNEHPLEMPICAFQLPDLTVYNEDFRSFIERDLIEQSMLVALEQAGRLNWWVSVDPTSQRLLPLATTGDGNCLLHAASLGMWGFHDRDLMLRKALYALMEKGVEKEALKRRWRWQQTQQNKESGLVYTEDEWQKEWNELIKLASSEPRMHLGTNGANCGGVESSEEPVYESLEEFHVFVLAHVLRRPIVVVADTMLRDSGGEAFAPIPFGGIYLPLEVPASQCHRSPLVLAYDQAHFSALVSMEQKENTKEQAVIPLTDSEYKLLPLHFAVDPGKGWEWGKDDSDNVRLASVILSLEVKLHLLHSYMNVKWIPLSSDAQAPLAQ
Text: OTUD7B (residues 56-446), OTUD7A (residues 1-462), USP21 (residues 196-565), and USP9X (residues 1551-1970) proteins were expressed in E. Coli BL21-Codon Plus (DE3)-RIL cells. Through an N-terminal GST tag, the DUBs were purified by affinity chromatography using glutathione sepharose 4B (GS4B) resin. Following the liberation of the DUB from the GST tag. the DUBs were subjected to size exclusion chromatography (SEC). To form the K11-linked di-ub, individual ubiquitins (K11R-substituted donor Ub and ΔGG acceptor ubiquitin) were purified and fluorescently-labeled on an N-terminal cysteine using either Cy3- (donor) or Cy5-maleimide (acceptor). The different ubiquitins were then added to a mixture containing UBA1, UBE2S, and MgATP to form di-ub. After an overnight incubation at room temperature, UBE2S was removed by cation-exchange chromatography and the di-ub was purified by SEC. These proteins were used to monitor DUB activity in the presence or absence of the various inhibitors. The inhibitors were incubated with DUBs in a reaction buffer (20 mM Hepes pH=8.0, 200 mM NaCl, 0.25 mg/mL BSA and 0.005% Tween-20) for 5 min at room temperature and then 0.5 uM fluorescently-labeled di-ub (K11-linked) was added to start the reaction. 5×SDS-PAGE loading buffer was used to quench the reaction at the indicated time point. […] Mono-ubiquitin was quantified to generate an IC50 value. […]

H1299 cells = experiment: Colony formation / growth of H1299 cells; type: cell-based; conditions: treated once for 10 days
Protocol: (§1) 500 cells from OTUD7B depleted A549 cells were seeded into each well of 6-well plates and cultured in the 37° C. incubator with 5% CO2 for 10-15 days until formation of visible colonies. Triplicates were performed. To test the effect of a given inhibitor on colony formation ability, 800 cells from A549, H520 and H1299 cell lines were seeded into each well of 6-well plates, respectively. Each inhibitor was added at indicated concentration the next day. Colonies were counted after 10 days of treatment. The colony staining method was as described. […] Colony numbers were counted manually. […]
(§2) 2,000 cells from indicated NSLC cell lines were seeded into each well of 96-well plates. Cell viability was measured 3 days post-treatment using MTT assays following manufacturer's instruction. […] Inhibitor was added the next day at indicated concentration and cell viability was measured after 3-day treatment. For cell proliferation assays in THP1, K562 and HL60 cell lines, 1×10^6 cells from each indicated cell line were seeded in 12.5 cm2 cell culture flask and cells were counted by hemocytometer under microscope at indicated time to monitor cell proliferation. […] Inhibitor was added the next day at indicated concentrations and cell number was counted after 3 days treatment. […]

HL60 cells = experiment: Leukemia cell proliferation, HL60; type: cell-based; conditions: 72 hrs
Protocol: 2,000 cells from indicated NSLC cell lines were seeded into each well of 96-well plates. Cell viability was measured 3 days post-treatment using MTT assays following manufacturer's instruction. For cell viability assays with inhibitor treatment, 2,000 cells from indicated NSLC and HEK293 cell lines were seeded in 96-well plate. Inhibitor was added the next day at indicated concentration and cell viability was measured after 3-day treatment. For cell proliferation assays in THP1, K562 and HL60 cell lines, 1×10^6 cells from each indicated cell line were seeded in 12.5 cm2 cell culture flask and cells were counted by hemocytometer under microscope at indicated time to monitor cell proliferation. To test inhibitor effects on THP1, K562 and HL60 cell growth, 2×10^5 cells were seeded in 12.5 cm2 cell culture flask. Inhibitor was added the next day at indicated concentrations and cell number was counted after 3 days treatment. Three independent experiments were performed to generate error bars.

NSCLC cells = experiment: NSCLC cell growth; type: cell-based; conditions: read-out: IC50 values to suppress NSCLC cell growth
Protocol: as §1, §2

Q: What does the source list for Cc1cc(NC(=O)c2cnn(C)c2C(=O)Nc2cc(C)nn2C2CCCC2)n(C2CCCC2)n1 [7Bi]?
A: IC50 (OTUD7B; 0.5 uM K11-diub and 5 nM active OTUD7B, 10 min, read-out: IC50, OTUD7B catalytic activity): ~40 µM; suppression of OTUD7B-mediated K11-diub cleavage by purified 7Bi (OTUD7B; HPLC purified 7Bi (~99% purity) compared with 90% purity): retained its ability to suppress OTUD7B-mediated K11-diub cleavage in vitro; cell growth (H1299 cells): reduced growth; cell proliferation (HL60 cells): reduced proliferation; IC50 (NSCLC cells): ~2.5 µM
